From paper PMC6272238, “Synthesis and Pharmacophore Modelling of 2,6,9-Trisubstituted Purine Derivatives and Their Potential Role as Apoptosis-Inducing Agents in Cancer Cell Lines” (Molecules, 2015)

Key:
[1] = tested on: H1975 (lung) cells; experiment: MTT cytotoxicity assay on H1975 cells; format: cell-based, human; conditions: for IC50: MTT, 72 h continuous exposure, triplicate, range 0.05 to 50 µM; for Selectivity Index (SI) (Vero/H1975): ratio IC50 (Vero)/IC50 (H1975)
Description: (§1) The potential in vitro antitumor activity of compounds 4a–l was initially tested for their cytotoxic effects on H1975, HL-60, HCT116 and HeLa cancer cell lines and Vero cells. […]
(§2) Cancer cell lines were grown at 37 °C in humidified atmosphere and 5% CO2. H1975, HL60, HTC116 and Vero cells were grown in RPMI 1640 culture medium supplemented with 10% fetal bovine serum and (100 UI/mL) penicillin-streptomicyn. HeLa cells were grown in EMEM culture medium, supplemented with 10% fetal bovine serum and (100 UI/mL) penicillin-streptomicyn.
(§3) Cytotoxicity assays were performed by using the MTT reduction method as described previously. Briefly, cancer cell lines were plated in a flat-bottom 96-wells plate at 10,000 cells per well density. […] Ten µL of MTT was added at a final concentration of 0.5 mg/mL, incubated at 37 °C for 4 h, and then solubilized with 10% sodium dodecyl sulfate (SDS) in 0.1 mM HCl and incubated overnight at 37 °C. Formazan formation was measured at 570 nm in a multiwell reader (StatFax 4200, Awareness Technology, Inc. Palm City, FL, USA).
(§4) Values are expressed as means ± standard deviations from three independent experiments. IC50 values, (Compound concentration necessary to decrease at 50% the MTT reduction) and the two-way analysis of variance (ANOVA) test were performed when necessary with Prism GraphPad 6.0f software (GraphPad Software Inc., San Diego, CA, USA).

[2] = tested on: H1975 cells; experiment: Apoptosis/viability assay by FACS with propidium iodide, H1975; format: cell-based, human; conditions: H1975, 50 µM, 16 h, PI staining
Description: (§5) To evaluate sensitivity to 4f, 4j and 4k, Vero, HTC116, H1975 and Hela were treated with concentrations of 50 µM for 16 h. Fifty µM etoposide was used as positive control. As it can be seen in Figure 5, 4f, 4j and 4k induced apoptosis as a prevalent type of cell death, in high percentages (>70%), in every cancer cell line. Moreover, 4f, 4j, and 4k induced an apoptotic cell response greater than etoposide.
(§6) Cell viability was analyzed by FACS as previously described. In this assay, after setting the baseline to exclude cell debris, cells impermeable to propidium iodide (PI negative) are considered as viable. Two populations of PI-permeable dead cells are distinguished based on fluorescence intensity, corresponding to either hypodiploid apoptotic cells or necrotic cells with intact DNA. Here, H1975, HTC116, and HeLa cells were incubated with concentrations of 50 µM of each compound for 16 h at 37 °C. Cells were harvested and stained with 10 µg/mL of propidium iodide to determine cell viability. Samples containing roughly 1 × 10^4 cells were evaluated by flow cytometry (FACScanto II; Becton Dickinson, Mountain View, CA, USA) and analyzed using the software program FCS Express v5.

[3] = tested on: HeLa cells; experiment: Apoptosis/viability assay by FACS with propidium iodide, HeLa; format: cell-based, human; conditions: 50 µM, 16 h, PI staining
Description: as §5, §6

[4] = tested on: HeLa cells; experiment: MTT cytotoxicity assay on HeLa cells; format: cell-based, human; conditions: for IC50: MTT, 72 h continuous exposure, triplicate, range 0.05 to 50 µM; for Selectivity Index (SI) (Vero/HeLa): ratio IC50 (Vero)/IC50 (HeLa)
Description: as §1, §2, §3, §4

[5] = tested on: HTC116 cells; experiment: Apoptosis/viability assay by FACS with propidium iodide, HTC116; format: cell-based, human; conditions: HTC116, 50 µM, 16 h, PI staining
Description: as §5, §6

[6] = tested on: Vero cells; experiment: MTT cytotoxicity assay on Vero cells; format: cell-based; conditions: Chlorocebus sabaeus, 72 h continuous exposure, triplicate, range 0.05 to 50 µM
[7] = tested on: HL-60 (leukemia) cells; experiment: MTT cytotoxicity assay on HL-60 cells; format: cell-based, human; conditions: 72 h continuous exposure, triplicate, range 0.05 to 50 µM
Description: as §1, §2, §3, §4

[8] = tested on: HCT116 (colorectal) cells; experiment: MTT cytotoxicity assay on HCT116 cells; format: cell-based, human; conditions: for IC50: MTT, 72 h continuous exposure, triplicate, range 0.05 to 50 µM; for Selectivity Index (SI) (Vero/HCT116): ratio IC50 (Vero)/IC50 (HCT116)
Description: as §1, §2, §3, §4

Row | SMILES | IC50 ([1]; Homo sapiens, NCI-H1975, 72 h) [µM] | Selectivity Index (SI) (Vero/H1975) [1] | apoptosis (percentage of cells) [2] [%] | apoptosis (percentage of cells) [3] [%] | IC50 ([4]; Homo sapiens, HeLa, 72 h) [µM] | Selectivity Index (SI) (Vero/HeLa) [4] | apoptosis (percentage of cells) [5] [%] | IC50 [6] [µM] | IC50 ([7]; Homo sapiens, HL-60, 72 h) [µM] | IC50 ([8]; Homo sapiens, HCT-116, 72 h) [µM] | Selectivity Index (SI) (Vero/HCT116) [8] | melting point [°C] | IC50 [1] [µM] | IC50 [4] [µM] | IC50 [7] [µM] | IC50 [8] [µM]
1 | COc1ccc(CNc2nc(NCc3ccccc3)nc3c2ncn3CCC(C)C)cc1 [Compound 4k, N^2-Benzyl-9-isopentyl-N^6-(4-methoxybenzyl)-9H-purine-2,6-diamine] | 5.6 ± 0.23 | 6.07 | > 70 | > 70 | 5.4 ± 0.32 | 6.30 | > 70 | 34 ± 0.13 | > 50 | 11 ± 0.26 | 3.09 | – | – | – | – | –
2 | CCCCn1cnc2c(NCc3ccc(OC)cc3)nc(NCc3ccccc3)nc21 [Compound 4h, N^2-Benzyl-9-butyl-N^6-(4-methoxybenzyl)-9H-purine-2,6-diamine] | 11 ± 0.25 | – | – | – | 6.3 ± 0.17 | – | – | 17 ± 0.2 | > 50 | 7 ± 0.16 | – | – | – | – | – | –
3 | CCCCCCn1cnc2c(NCc3ccc(OC)cc3)nc(NCc3ccccc3)nc21 [Compound 4l, N^2-Benzyl-9-hexyl-N^6-(4-methoxybenzyl)-9H-purine-2,6-diamine] | > 50 | – | – | – | 9 ± 0.13 | – | – | 15 ± 0.06 | > 50 | 6.8 ± 0.14 | – | – | – | – | – | –
4 | CC(C)n1cnc2c(NCc3ccccc3)nc(NCc3ccccc3)nc21 [Compound 4a, N^2,N^6-Dibenzyl-9-isopropyl-9H-purine-2,6-diamine] | 14 ± 0.26 | 1.43 | – | – | 32 ± 0.13 | 0.63 | – | 20 ± 0.11 | 26 ± 0.13 | 13 ± 0.12 | 1.54 | – | – | – | – | –
5 | CCCCCn1cnc2c(NCc3ccccc3)nc(NCc3ccccc3)nc21 [Compound 4d, N^2,N^6-Dibenzyl-9-pentyl-9H-purine-2,6-diamine] | 12 ± 0.19 | 0.21 | – | – | 10.1 ± 0.14 | 0.25 | – | 2.5 ± 0.2 | > 50 | 11 ± 0.11 | 0.23 | 83 to 86 | – | – | – | –
6 | COc1cc([C@@H]2c3cc4c(cc3[C@@H](O[C@@H]3O[C@@H]5CO[C@@H](C)O[C@H]5[C@H](O)[C@H]3O)[C@H]3COC(=O)[C@H]23)OCO4)cc(OC)c1O [Etoposide, reference compound] | 8 ± 0.33 | – | – | – | 8.2 ± 0.33 | – | – | > 25 | 6.2 ± 0.18 | 2.8 ± 0.24 | – | – | – | – | – | –
7 | CC(C)CCn1cnc2c(NCc3ccccc3)nc(NCc3ccccc3)nc21 [Compound 4e, N^2,N^6-Dibenzyl-9-isopentyl-9H-purine-2,6-diamine] | 8.6 ± 0.18 | 0.29 | – | – | 2.7 ± 0.13 | 0.93 | – | 2.5 ± 0.14 | > 50 | 5.1 ± 0.14 | 0.49 | 69 to 70 | – | – | – | –
8 | CCCCCCn1cnc2c(NCc3ccccc3)nc(NCc3ccccc3)nc21 [Compound 4f, N^2,N^6-Dibenzyl-9-hexyl-9H-purine-2,6-diamine] | 9.9 ± 0.18 | 2.63 | > 70 | > 70 | 5.3 ± 0.13 | 4.91 | > 70 | 26 ± 0.12 | > 50 | 3 ± 0.12 | 8.67 | – | – | – | – | –
9 | COc1ccc(CNc2nc(NCc3ccccc3)nc3c2ncn3CC(C)C)cc1 [Compound 4i, N^2-Benzyl-9-isobutyl-N^6-(4-methoxybenzyl)-9H-purine-2,6-diamine] | 3.4 ± 0.28 | 0.56 | – | – | 4.9 ± 0.16 | 0.39 | – | 1.9 ± 0.24 | > 50 | 1.6 ± 0.12 | 1.19 | 110 to 112 | – | – | – | –
10 | CCCCn1cnc2c(NCc3ccccc3)nc(NCc3ccccc3)nc21 [Compound 4b, N^2,N^6-Dibenzyl-9-butyl-9H-purine-2,6-diamine] | 28 ± 0.08 | 0.20 | – | – | 18 ± 0.14 | 0.31 | – | 5.6 ± 0.15 | > 50 | 7.2 ± 0.16 | 0.78 | 113 to 115 | – | – | – | –
11 | CC(C)Cn1cnc2c(NCc3ccccc3)nc(NCc3ccccc3)nc21 [Compound 4c, N^2,N^6-Dibenzyl-9-isobutyl-9H-purine-2,6-diamine] | > 36 | 0.61 | – | – | > 36 | – | – | 22 ± 0.23 | > 36 | > 36 | – | 111 to 113 | 36 ± 0.27 | > 50 | > 50 | > 50
12 | COc1ccc(CNc2nc(NCc3ccccc3)nc3c2ncn3C(C)C)cc1 [Compound 4g, N^2-Benzyl-9-isopropyl-N^6-(4-methoxybenzyl)-9H-purine-2,6-diamine] | > 50 | – | – | – | 10.7 ± 0.18 | 1.40 | – | 15 ± 0.23 | 22 ± 0.13 | 7.1 ± 0.11 | 2.11 | 69 to 70 | – | – | – | –
13 | CCCCCn1cnc2c(NCc3ccc(OC)cc3)nc(NCc3ccccc3)nc21 [Compound 4j, N^2-Benzyl-N^6-(4-methoxybenzyl)-9-pentyl-9H-purine-2,6-diamine] | 2.3 ± 0.13 | 11.30 | > 70 | > 70 | 9.5 ± 0.14 | 2.74 | > 70 | 26 ± 0.18 | > 50 | 8 ± 0.21 | 3.25 | – | – | – | – | –
